The text below walks through data of ChEMBL document CHEMBL1151995, “Evaluation of tea polyphenols as anti-HIV agents” (Bioorg Med Chem Lett, 1996).

In brackets after ≈: the same amount, converted by molar mass.

One assay concerns H9. The assay can be described thus: Inhibition of uninfected H9 lymphocytic cell growth. The format is functional, cell-based. The following applies: Homo sapiens.
Assay [1] deals with Human immunodeficiency virus 1. Briefly: Inhibition of HIV-1 replication in H9 (human lymphoma) cells; No suppression. The format is functional, organism-based.

On to `O=C(O[C@@H]1[C@@H](c2c(O)cc(O)c3c2O[C@H](c2cc(O)c(O)c(O)c2)[C@H](OC(=O)c2cc(O)c(O)c(O)c2)C3)c2c(O)cc(O)cc2O[C@@H]1c1cc(O)c(O)c(O)c1)c1cc(O)c(O)c(O)c1`, for which the half-inhibitory concentration (IC50) in the assay on H9 is 40 µg/mL (≈ 43.7 µM). For the same compound, the EC50 entry in assay [1] was “No effect”.

`O=c1c(O)cc([C@H]2Oc3cc(O)cc(O)c3C[C@H]2O)cc2c([C@H]3Oc4cc(O)cc(O)c4C[C@H]3O)cc(O)c(O)c12` [THEAFLAVIN] registered a 50% inhibitory concentration (IC50) with H9 of 48 µg/mL (≈ 85 µM). The EC50 result in assay [1] was “No effect”.

In the assay on H9, `O=C(O[C@@H]1Cc2c(O)cc(O)cc2O[C@@H]1c1cc(O)c(O)c(O)c1-c1c([C@H]2Oc3cc(O)cc(O)c3C[C@H]2O)cc(O)c(O)c1O)c1cc(O)c(O)c(O)c1` [2',2'-BISEPIGALLOCATECHIN MONOGALLATE] gave a 50% inhibitory concentration (IC50) of 9.5 µg/mL (≈ 12.5 µM). Also, the EC50 entry in assay [1] was “No effect”.

`O=C(O[C@@H]1Cc2c(O)cc(O)cc2O[C@@H]1c1ccc(O)cc1)c1cc(O)c(O)c(O)c1`: the IC50 with H9 is 50 µg/mL (≈ 117 µM). Also, in assay [1], the EC50 entry is “Not Active”.

In the case of `O=C(O[C@@H]1Cc2c(O)cc(O)cc2O[C@@H]1c1cc(O)c(O)c2c(=O)c(O)cc([C@H]3Oc4cc(O)cc(O)c4C[C@H]3O)cc12)c1cc(O)c(O)c(O)c1`, the half-maximal inhibitory concentration (IC50) in the assay on H9 was found to be 48 µg/mL (≈ 67 µM). Besides, the EC50 entry in assay [1] was “No effect”.

On to `Oc1cc(O)c2c(c1)O[C@H](c1cc(O)c(O)c(O)c1)[C@H](O)C2` [EPIGALLOCATECHIN], for which, in the assay on H9, the 50% inhibitory concentration (IC50) came out at 1.8 µg/mL (≈ 5.88 µM). For the same compound, in assay [1], the EC50 result is “No effect”.

In the assay with H9, `O=C(O[C@@H]1Cc2c(O)cc(O)cc2O[C@@H]1c1cc(O)c(=O)c2c(O)c(O)cc([C@H]3Oc4cc(O)cc(O)c4C[C@H]3OC(=O)c3cc(O)c(O)c(O)c3)c2c1)c1cc(O)c(O)c(O)c1` [THEAFLAVIN DIGALLATE] showed a 50% inhibitory concentration (IC50) of 48 µg/mL (≈ 55.3 µM). In addition, the EC50 result in assay [1] was “No effect”.

Take `O=C(O[C@H](Cc1c(O)cc(O)cc1O)[C@@H](c1cc(O)c(O)c(O)c1)c1c(O)cc(O)c2c1O[C@H](c1cc(O)c(O)c(O)c1)[C@H](OC(=O)c1cc(O)c(O)c(O)c1)C2)c1cc(O)c(O)c(O)c1`: the concentration for half-maximal inhibition (IC50) in the assay with H9 is 8 µg/mL (≈ 8.73 µM). Besides, the EC50 result in assay [1] is recorded as “No effect”.

Regarding `O=C(O[C@@H]1Cc2c(O)cc(O)cc2O[C@@H]1c1ccc(O)c(O)c1)c1cc(O)c(O)c(O)c1` [EPICATECHIN GALLATE], the IC50 in the assay with H9 is > 10 µg/mL. The EC50 entry in assay [1] is “No effect”.

On to `O=C(O[C@@H]1Cc2c(O)cc(O)c([C@@H]3c4c(O)cc(O)cc4O[C@H](c4cc(O)c(O)c(O)c4)[C@H]3O)c2O[C@@H]1c1cc(O)c(O)c(O)c1)c1cc(O)c(O)c(O)c1`, for which, in the assay on H9, the IC50 was 9 µg/mL (≈ 11.8 µM). For the same compound, the EC50 result in assay [1] is reported as “No effect”.

Regarding `COc1cc(C(=O)O[C@@H]2Cc3c(O)cc(O)cc3O[C@@H]2c2ccc(O)c(O)c2)cc(O)c1O`, the concentration for half-maximal inhibition (IC50) with H9 turned out to be 50 µg/mL (≈ 110 µM). Also, in assay [1], the EC50 entry is on record as “No effect”.

In the assay on H9, `O=C(O[C@H]1Cc2c(O)cc3c(c2O[C@H]1c1cc(O)c(O)c(O)c1)[C@H]1c2c(O)cc(O)cc2O[C@@](c2cc(O)c(O)c(O)c2)(O3)[C@@H]1O)c1cc(O)c(O)c(O)c1` had an IC50 of 40 µg/mL (≈ 52.6 µM). For the same compound, the EC50 entry in assay [1] is recorded as “No effect”.

Turning to `COc1c(O)cc(C(=O)O[C@@H]2Cc3c(O)cc(O)cc3O[C@@H]2c2ccc(O)c(O)c2)cc1O`, inhibition with H9 was half-maximal at 50 µg/mL (≈ 110 µM) (IC50). Further, the EC50 result in assay [1] is reported as “No effect”.

The IC50 is the point on the concentration scale where inhibition reaches its midpoint. A lower IC50 goes with greater potency.
